According to PMC11101759, “Inhibitors of dermatan sulfate epimerase 1 decreased accumulation of glycosaminoglycans in mucopolysaccharidosis type I fibroblasts” (Glycobiology, 2024):
pIC50: −log10 of the molar value.

Assays:
[1] = biological target: T1, HSepi; heparan sulfate glucuronyl C-5 epimerase (GLCE) (Homo sapiens, UniProt O94923); test: HSepi epimerase activity assay, lysate of transfected […]HEK; format: biochemical; conditions: read-out: % inhibition at 1,000 μM
T1 sequence (O94923 29-617): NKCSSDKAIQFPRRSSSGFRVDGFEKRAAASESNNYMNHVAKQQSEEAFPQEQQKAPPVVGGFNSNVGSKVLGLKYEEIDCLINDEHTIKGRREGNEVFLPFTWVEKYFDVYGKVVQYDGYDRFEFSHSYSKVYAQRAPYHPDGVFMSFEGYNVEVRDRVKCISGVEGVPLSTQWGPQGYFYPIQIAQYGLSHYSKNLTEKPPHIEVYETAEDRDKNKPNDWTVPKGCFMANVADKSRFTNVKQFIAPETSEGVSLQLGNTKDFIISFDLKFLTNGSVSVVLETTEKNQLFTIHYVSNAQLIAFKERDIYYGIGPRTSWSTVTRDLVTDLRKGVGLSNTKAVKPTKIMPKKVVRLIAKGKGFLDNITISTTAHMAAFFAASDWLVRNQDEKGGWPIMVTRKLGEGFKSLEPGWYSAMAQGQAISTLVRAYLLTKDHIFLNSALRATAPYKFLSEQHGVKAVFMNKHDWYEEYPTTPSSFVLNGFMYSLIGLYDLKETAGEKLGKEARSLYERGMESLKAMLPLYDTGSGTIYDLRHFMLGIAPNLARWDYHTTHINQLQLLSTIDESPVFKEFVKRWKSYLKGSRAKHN

[2] = biological target: T2, DS-epi1 (truncated form, amino acid 23–775-HIS) (Homo sapiens, UniProt Q9UL01); test: DS-epi1 epimerase activity assay; format: biochemical
T2 construct: gene DSE; truncated, residues 23-775, HIS tag

SMILES	inhibition at 1000 µM [1]	pIC50 [2]
CN(c1cc(-c2ccccc2)nc(SCc2ccc(C(=O)O)o2)n1)C1CCCCC1 [compound 3, inhibitor 3]	69%	4.92
CCCN(C)c1cc(-c2ccccc2)nc(SCc2cccc(C(=O)O)c2)n1 [compound 11, inhibitor 11]	47%	4.80
